Where two headings read alike, the source gives them in different places.
Assays:
[1] = test system: human umbilical vein endothelial cells (HUVEC); experiment: MTT toxicity assay, normal cells HUVEC; format: cell-based; settings: for IC50: Homo sapiens, HUVEC, read-out: IC50 (μM) ± SD HUVEC; for SI-H: SI-H = IC50 (HUVEC)/IC50 (PC-3)
Description: The toxicity of compounds 4k and 5a was also tested by using human umbilical vein endothelial cells (HUVEC) and human liver cells (L02).
(§1) Cells grown in logarithmic phase were harvested and seeded onto 96-well cell plates at a density of 4 ∼ 5 × 10^3 cells per well (various from cell type) and were cultured for 24 h. Different concentrations of compounds were added into the wells, and the cells were cultured for another 72 h. The medium was removed, then 20 μL of MTT (5 mg/mL in PBS) was added to each well and the cells were incubated for 4 h. 150 μL of DMSO was added to each well to dissolve the formazan, and the absorbance at 490 nm of each well was measured by a microplate reader. IC50 values were calculated by SPSS software.

[2] = test system: PC-3 cells; experiment: Wound healing assay; format: cell-based, human; settings: 24 h, control group 48.7%
Description: To investigate the effect of 4k and 5a on cell migration, wound healing assay was used on PC-3 cells.
PC-3 cells in logarithmic phase were harvested and seeded onto 12-well cell plates at a density of 2.5 × 10^5 cells per well, and were cultured for 24 h. Scratches were made in confluent monolayers using 200 μL pipette tip, and the cells were washing twice with PBS to remove all the non-adherent cells. […] Images of wounds were taken at 0 h and 24 h and analysed by Fiji/ImageJ software.

[3] = test system: HCT-116 cells; experiment: MTT antiproliferative assay, HCT-116; format: cell-based; settings: Homo sapiens, 72 h drug exposure, read-out: IC50 (μM) ± SD HCT-116
Description: (§2) All cell lines tested in this study were purchased from the American Type Culture Collection (ATCC, Manassas, VA). SGC-7901 (human gastric adenocarcinoma), HCT-116 (human colon carcinoma), and A549 (human pulmonary carcinoma) cells were cultured in RPMI-1640 medium containing 10% foetal serum (FBS) and 1% penicillin-streptomycin solution (100×). MCF-7 (human breast carcinoma) cells were cultured in DMEM medium containing 10% foetal serum (FBS) and 1% penicillin-streptomycin solution (100×). PC-3 (human prostate carcinoma) cells were cultured in Ham’s F-12K medium containing 10% foetal serum (FBS) and 1% penicillin-streptomycin solution (100×). All cells were cultured at 37 °C in a humidified atmosphere containing 5% CO2.
as §1

[4] = test system: PC-3 cells; experiment: Colony formation assay; format: cell-based, human; settings: PC-3, 20 nM, 24 h treatment then one week culture
Excerpt: Colony formation assay was selected to assess the effect of 4k and 5a on clonogenic formation of PC-3 cells.
PC-3 cells in logarithmic phase were harvested and seeded onto 12-well cell plates at a density of 1 × 10^3 cells per well. […] Then the medium was removed, and cells were washed with PBS and added fresh medium containing 10% FBS. The cells were continued to culture for one week. The medium was removed, and the cells were fixed with 4% paraformaldehyde and subsequently stained with crystal violet solution. Images were taken and analysed by Fiji/ImageJ software.

[5] = test system: microtubule network in PC-3 cells; experiment: Immunofluorescence assay of microtubule network; format: cell-based, human; settings: 50 nM, 24 h
Description: To evaluate the effects of 4k and 5a on intracellular microtubule, immunofluorescence assay was carried out to observe the changes of microtubule network in cell.
PC-3 cells in logarithmic phase were harvested and seeded onto 12-well cell plates with round coverslip on the bottom of each well at a density of 3 × 10^4 cells per well, and were cultured for 24 h. […] The medium was removed, and cells were washed with PBS twice, fixed with 4% formaldehyde in PBS for 30 min, then the solution was removed. Cells were washed with PBS twice, permeabilized with 0.2% (v/v) Triton X-100 in PBS for 30 min, then the solution was removed. Cells were washed with PBS twice, blocking the cells in 5% bovine serum albumin (BSA) for 30 min. Then BSA was removed, and cells were incubated with the primary α-tubulin antibody (Santa Cruz, CA) containing 2% BSA (v/v, 1: 100) overnight at 4 °C.
The following steps were operated in dark environment. The antibody was removed, then cells were washed with PBST twice and were added FITC-conjugated anti-mouse secondary antibody diluted (1:100) with 2% BSA in PBS and incubated at room temperature for 4 h. The cells were then washed with PBST twice, stained with 4′,6-diamidino-2-phenylindole (DAPI) for 30 min at room temperature, and washed with PBS twice. The round coverslips at the bottom of wells were taken out, and the images were photographed by a confocal microscope.

[6] = test system: MCF-7 cells; experiment: MTT antiproliferative assay, MCF-7; format: cell-based; settings: Homo sapiens, read-out: IC50 (μM) ± SD MCF-7
Description: The in vitro antiproliferative activities of all target compounds 4a−k, 5a−h, and 6a−h were assayed by MTT method using human gastric cancer cell line SGC-7901 and human breast cancer cell line MCF-7.
as §2, §1

[7] = test system: cleaved caspase-9; experiment: Western blot assay, cleaved caspase-9; format: cell-based, human; settings: PC-3 cells, dose-dependent manner
Description: (§3) The expression of cell apoptosis-related proteins (Bax, Bcl-2, and cleaved caspase-9) after treatment of 4k and 5a was also measured by western blot assay.
(§4) PC-3 cells in logarithmic phase were harvested and seeded onto culture plates, and were cultured for 24 h. […] The proteins of PC-3 cells were extracted by RIPA buffer containing 1% PMSF (Beyotime Biotechnology, China). The protein concentration was measured by BCA Assay Kit (SEVEN Biotech, China). Equal amounts and concentration of protein were diluted in 5× loading buffer (Beyotime, China) and denatured by boiled for 5 min. Protein samples were separated on 12.5% SDS-PAGE gels (EpiZyme, China) and transferred to PVDF membranes (Millipore Corporation, Billerica, MA, USA). The membranes were blocked in QuickBlockTM Block Buffer (SEVEN Biotech, China) for 10 min at room temperature. Then the membranes were incubated with the primary antibodies overnight at 4 °C, including Cyclin B1 (1:2000, Proteintech, China), CDK1 (1:5000, Proteintech, China), BAX (1:5000, Proteintech, China), Bcl2 (1:1000, Proteintech, China), Caspase 9/p35/p10 (1:1000, Proteintech, China), and β-actin (1:20 000, Proteintech, China). […] The protein signals were detected by using chemiluminescent reagents kit (NCM Biotech, China) and visualised with ChemiDocImaging System (Tanon 5200, China). Protein expressions was quantified by using Fiji/ImageJ software.

[8] = test system: Bcl-2; experiment: Western blot assay, Bcl-2; format: cell-based, human; settings: PC-3 cells
Description: as §3, §4

IC50 ([6]; MCF7, 72 h drug exposure, MTT assay) | Compound | IC50 ([1]; 72 h drug exposure, MTT assay, normal cells) | SI-H [1] | recover percentage of scratches ([2]; PC-3, 10 nM) | recover percentage of scratches ([2]; PC-3, 20 nM) | IC50 [3] | colony formation compared to control [4] | effect on microtubule network [5] | level of cleaved caspase-9 [7] | expression of Bcl-2 ([8]; western blot, 10, 20, 40 nM) | IC50 ([1]; 72 h) | IC50 ([6]; MCF7, 72 h) | expression of Bcl-2 ([8]; western blot, 5, 20, 40 nM)
0.031 ± 0.005 µM | COc1cc(C(=O)c2nn(-c3ccc(N)cc3)cc2N)cc(OC)c1OC [4k, (4-amino-1–(4-aminophenyl)-1H-pyrazol-3-yl)(3,4,5-trimethoxyphenyl)methanone] | 0.57 ± 0.167 µM | 39.11 | 42.7% | 20.2% | 0.01 ± 0.001 µM | 5.7% | microtubule network was destroyed | increase | significantly decreased | – | – | –
– | COc1cc(C2=NCC(=O)Nc3cn(-c4ccccc4)nc32)cc(OC)c1OC [5a, 2-Phenyl-8–(3,4,5-trimethoxyphenyl)-2,6-dihydropyrazolo[4,3-e][1,4]diazepin-5(4H)-one] | – | 147.7 | 32.3% | 23.3% | 0.163 ± 0.038 µM | 34.9% | microtubule network was destroyed | increase | – | 0.86 ± 0.229 µM | 1.78 ± 0.617 µM | significantly decreased
